# Data taken from patent US8158165B2, “Preventative treatment and remission of allergic diseases” (CSIR, priority 2006, dated 2012).
# Legend:
# [1] = Cytotoxicity, Mediator Release, Con A-Induced (AlamarBlue); assay type: cell-based, human; settings: human, pH 7.4
# Experimental: (§1) For the ConA-Induced mediator release/cytotoxicity test, the test compound and/or vehicle is incubated with a suspension of human peripheral blood mononuclear leukocytes (PBMNL, 1×10^5/well) in the presence of Concanavalin A (Con A, 20 μg/ml) in RPMI buffer (pH 7.4) at 37° C. overnight in 5% CO2. AlamarBlue reagent is added and the cells are incubated at 37° C. for 16 hours. Living cells take up AlamarBlue and emit fluorescence. Fluorescence intensity is measured using a SpectraFluor Plus plate reader with excitation at 530 nm and emission at 590 nm. A decrease of 50% or more (50%) in fluorescence intensity relative to the vehicle treated controls indicates significant cytotoxicity. […] Dexamethasone is used as standard reference agent.
# [2] = system: human peripheral blood mononuclear leukocytes (PBMNL); experiment: as above; assay type: cell-based
# Experimental: as §1
# [3] = system: NF-κB transcription factor; experiment: Transcription Response, NF-κB (Jurkat lacZ reporter); assay type: cell-based, human
# Text: The assay is described in Lenardo M J, Baltimaore D. Lenardo M J, Baltimaore D, NF-κB: A pleiotropic mediator of inducible and tissue specific gene control. Cell. 58: 227-229, 1989, the contents of which are incorporated herein by way of reference.
# Human T lymphocytic Jurkat cells, transfected with a response element-lacZ reporter in which transcription of the β-galactosidase gene is directed by the binding site for the NF-κB transcription factor, are used. Test compound and/or vehicle are incubated with the cells (1.5×10^6/ml) in the presence of 0.5 μM A23187 and 50 ng/ml PMA (phorbol 12-myristate 13-acetate) in RPMI-1640 pH 7.4 at 37° C. for 4 hours. Test compound-induced β-galactosidase activity is determined by the conversion of FDG (fluorescein di-β-D-galactopyranoside) to fluorescein. Fluorescence intensity is read on SpectroFluor Plus plate reader. […]
structure (smiles),measurement,setting,value
"Cc1coc2c1C[C@H]1[C@H](C)C=CC(=O)[C@]1(C)C2 (relative stereo) [compound 1, 4,4a,5,9-tetrahydro-3,5,8a-trimethylnaptho[2,3-b]furan-8-one]",IC50,[1],58.5 µM
same,cytotoxicity observed in mediator release bio-assays (in words),[2],Limited cytotoxicity
same,"ANT. Cytotoxicity, Mediator Release, Con A-Induced",[2]; 10 nM,−1%
same,"ANT. Cytotoxicity, Mediator Release, Con A-Induced",[2]; 0.1 μM,0%
same,"ANT. Cytotoxicity, Mediator Release, Con A-Induced",[2]; 1 μM,18%
same,"ANT. Cytotoxicity, Mediator Release, Con A-Induced",[2]; 10 μM,35%
same,"ANT. Cytotoxicity, Mediator Release, Con A-Induced",[2]; 100 μM,53%
same,"% RESPONSE Ant, Transcription Response, NF-κB",[3]; 0.1 μM,0%
same,"% RESPONSE Ant, Transcription Response, NF-κB",[3]; 1 μM,7%
same,"% RESPONSE Ant, Transcription Response, NF-κB",[3]; 10 μM,27%
same,"% RESPONSE Ant, Transcription Response, NF-κB","[3]; 10 μM, fifth (last) step of the series",5%
same,"% RESPONSE Ant, Transcription Response, NF-κB",[3]; 100 μM,113%
same,"% RESPONSE Ant, Transcription Response, NF-κB","[3]; 100 μM, listed as compound of formula 1",> 100%
same,IC50,"[3]; Homo sapiens, Jurkat, read-out: IC50 inhibition of NF-κB transcription factor",15.6 µg/mL
